# Test system: pre-existing HCL tumors (JOK-Luc)
# Assay: Intraperitoneal JOK-Luc HCL xenograft treated with antibody, luminescence imaging
# Format: in vivo
# Conditions: JOK-Luc injected into peritoneum of Hsd:Athymic Nude-Foxn1nu mice; antibody intraperitoneally at day 4 and day 6; imaged at day 7; compared with control IgG antibody
# Description: JOK-1 cells were stably transfected with the plasmid pGL4.5[Luc2/CMV/Neo] that contains the firefly luciferase gene under control of the constitutive gene promoter of cytomegalovirus. This luciferase cell line was then injected into the peritoneum of mice of the strain Hsd:Athymic Nude-Foxn1^nu. After 3 days, mice were subjected to whole body imaging following intravenous injection of D-Luciferin. Those mice where tumor was detected were intraperitoneally injected at day 4 and day 6 with the anti-CD38 antibody SAR650984 or an IgG control antibody. At day 7, mice were again imaged. Depicted are superimposed luminescence and X-ray images of three mice injected with SAR650984 (CD38) and three injected with the control antibody (Ctrl).
# Experiments performed with JOK-CD38-KO indicate that targeting CD38 expression in HCL may have therapeutic efficacy. This was tested using the parent of JOK-CD38-KO where CD38 expression remained intact. The parental line was engineered such that it constitutively produced luciferase and, therefore, could be visualized by luminescence in the presence of luciferin. […]
# The role of CD38 in HCL was assessed using 5×10^6 of the cell line pools JOK-CD38-WT or JOK-CD38-KO injected subcutaneously into male or female mice that were 6-8 weeks old and of the strain NOD.Cg-Prkdc^scid IL2rγ^tm1Wj1/SzJ (Jackson Laboratory, Bar Harbor, Me., USA). […]
substance,measurement,value
SAR650984: humanized anti-CD38 antibody SAR650984 (Sanofi Oncology),effect on pre-existing HCL tumors by luminescence imaging,tended to be reduced

# Reference: US10746739B2, “Identification of novel diagnostics and therapeutics by modulating RhoH” (Leukemia Therapeutics, LLC, priority 2015, dated 2020)
